Measured values: patent US4774248A, “Methods of treating depression and depressive states using 5-phenyl-1,4,5,6-tetrahydropyrimidine derivatives” (priority 1985, dated 1988)
“Also recorded” adds a separate entry of the source.

Assays:
[1] = Acute toxicity, intraperitoneal (LD0, LD30, LD60, LD100); type: in vivo; conditions: mouse, in vivo, ip; 128 mg/kg i.p., male mice; read-out: death 24 h after administration
Description: (§1) The results of toxicological and neuropsychopharmacological tests which were carried out with the products according to the invention have been summarized below. In these tests, solutions of the said products in distilled water were administered intraperitoneally in a volume of 20 ml/kg to male mice and in a volume of 5 ml/kg to male rats.

[2] = test system: male mice; experiment: as above; type: in vivo
Description: as §1

[3] = test system: mice; experiment: Overall behavior and reactivities in mice; type: in vivo; conditions: i.p.
Description: as §1
(§2) Groups of 3 animals are observed before and then 0.25 h, 0.50 h, 1 h, 2 h, 3 h and 24 h after the administration of CRL 41 378. The following observations are made:
(§3) Groups of 3 animals are observed before and then 0.25 h, 0.50 h, 1 h, 2 h, 3 h and 24 h after the administration of CRL 41 329.

[4] = test system: rats; experiment: Overall behavior and reactivities in rats; type: in vivo; conditions: i.p.
Description: as §1, §2, §3

[5] = test system: hypothermia, righting behavior and stereotypies induced by apomorphine; experiment: Interaction with apomorphine in mice; type: in vivo; conditions: i.p.
Description: as §1
CRL 41 378 is administered to groups of 6 mice 30 minutes before the subcutaneous injection of 1 or 16 mg/kg of apomorphine.

[6] = test system: stereotypies induced by apomorphine; experiment: Interaction with apomorphine in rats; type: in vivo; conditions: i.p., apomorphine 0.5 mg/kg s.c.
Description: as §1
CRL 41 378 is administered to groups of 12 rats 0.5 h before the subcutaneous injection of 0.5 mg/kg of apomorphine.

[7] = test system: hypothermia and ptosis induced by reserpine; experiment: Interaction with reserpine; type: in vivo; conditions: mice, i.p.; reserpine 2.5 mg/kg
Description: as §1
Four hours after the intraperitoneal injection of 2.5 mg/kg of reserpine, groups of 12 mice receive CRL 41 378.

[8] = test system: hypothermia, trembling and peripheral cholinergic symptoms induced by oxotremorine; experiment: Interaction with oxotremorine; type: in vivo; conditions: mice, i.p.; oxotremorine 0.5 mg/kg
Description: as §1
CRL 41 378 is administered to groups of 6 mice 0.5 h before the intraperitoneal injection of 0.5 mg/kg of oxotremorine.

[9] = test system: mice; experiment: Electric shock; type: in vivo; conditions: i.p.
Description: as §1
The test is performed on groups of 10 mice 30 minutes after the administration of CRL 41 378.

[10] = test system: mice; experiment: Spontaneous motility (actimeter); type: in vivo; conditions: i.p.
Description: as §1
0.5 h after they have received CRL 41 378, the mice (6 per dose, 12 control animals) are placed in an actimeter, where their motility is recorded for 30 minutes.

[11] = test system: mice; experiment: Intergroup aggressiveness; type: in vivo; conditions: mice, i.p.
Description: as §1
After they have stayed for 3 weeks in the two halves of a cage divided by an opaque partition, groups of 3 mice receive CRL 41 378. Half an hour later, the two groups from the same cage are brought together by removal of the partition and the number of fights which occur in 10 minutes is noted.

[12] = test system: mice; experiment: Motility reduced by hypoxic aggression (acute hypobaric anoxia); type: in vivo; conditions: i.p.
Description: In these tests, solutions of the said products in distilled water were administered intraperitoneally in a volume of 20 ml/kg to male mice and in a volume of 5 ml/kg to male rats.

[13] = test system: central nervous system (CNS); experiment: Neuropsychopharmacological profile (conclusions of the tests); type: in vivo, mice and rats; conditions: i.p.
Description: as §1

## Cl.Clc1ccc(C2CN=CNC2)cc1 (stereo not drawn) [CRL 41 336, 5-(4-chlorophenyl)-1,4,5,6-tetrahydropyrimidine hydrochloride]
[1]
  mortality at 24 h: 60%
[2]; 64 mg/kg i.p.
  toxic signs in the animals treated: all the animals treated exhibit sedation and a decrease in the breathing rate
[2]; 128 mg/kg i.p.
  toxic signs in the animals treated: the animals exhibit sedation and a decrease in the breathing rate
[2]; intraperitoneal
  LD0 (maximum non-lethal dose): greater than 64 mg/kg
  LD60: about 128 mg/kg
  LD100 (minimum dose lethal to all the animals): 200 to 210 mg/kg
[3]; 32 mg/kg, from 1 to 3 hours
  moderate hypothermia: -1.3 °C
[3]; 32 mg/kg, hydrochloride
  overall behavior and reactivities: sedation for 0.25 h; also recorded: a decrease in the breathing rate from 1 to 3 hours; also recorded: moderate hypothermia; also recorded: vasodilation of the ears and tail from 0.5 h to 3 h
[3]; 0.5 to 8 mg/kg
  overall behavior and reactivities: no distinct modification of the behavior and reactivities
[4]; 4 mg/kg
  overall behavior and reactivities: mydriasis for 2 hours (maximum 0.5 h after administration)
[4]; 16 mg/kg, hydrochloride
  overall behavior and reactivities: sedation for 3 h; also recorded: a decrease in the breathing rate for 3 h; also recorded: mydriasis for 3 h (with its maximum intensity 0.5 h after administration); also recorded: piloerection for 1 h; also recorded: vasodilation (of the paws) for 2 h
[4]; 0.25 and 1 mg/kg
  overall behavior and reactivities: behavior, reactivities and variations in rectal temperature and pupil diameter which are substantially comparable to those of the animals in the control group
[5]
  action on hypothermia induced by apomorphine: distinct antagonism of the hypothermia induced by apomorphine and oxotremorine
  action on righting behavior and stereotypies due to apomorphine: decreases the stereotypies induced by apomorphine in rats and mice
[6]
  action on stereotypies induced by apomorphine: decreases the stereotypies induced by apomorphine in rats and mice
[7]
  action on hypothermia induced by reserpine: more moderate antagonism of the hypothermia induced by reserpine
[8]
  action on hypothermia induced by oxotremorine: distinct antagonism of the hypothermia induced by apomorphine and oxotremorine
[9]
  lethal effects of electric shock: aggravation of the lethal effect of electric shock
[10]
  spontaneous motor activity: a decrease in the spontaneous motor activity
[11]
  intergroup aggressiveness (number of fights): a decrease in the intergroup aggressiveness in mice
[12]
  motor recovery after acute hypobaric hypoxia: a decrease in the motility after acute hypobaric hypoxia
[13]
  antidepressant effects: antidepressant effects
  peripheral α-adrenergic stimulant effects: peripheral α-adrenergic stimulant effects appearing at high doses, especially as mydriasis and piloerection in rats
[13]; hydrochloride
  sedative effects: sedation in mice and rats; also recorded: hypothermia (transient) in mice
